Test: Human HepG2 cell viability assay in 384 well format
Assay type: toxicity, cell-based
Parameters: dose 125 nL, time 70.5 hour; concentration not given beside the values
Conditions: HepG2 cells, read-out: Inhibition

Cc1nc2n(n1)CC(NCCC(=O)Nc1cc(C)on1)CC2 (configuration not stated)
cytotoxicity at 70.5 h: -6.62%

CN(C)c1cc2c(nn1)CCN(C(=O)C1CCCc3ccccc31)C2 (configuration not stated)
cytotoxicity at 70.5 h: -8.02%

COc1cc(CNC(=O)N(Cc2ccc(F)cc2F)C2CC2)ccn1
cytotoxicity at 70.5 h: -12.9%

Nc1cc2c(nn1)CCN(C(=O)C1CCc3ccccc31)C2 (configuration not stated)
cytotoxicity at 70.5 h: -11.2%

Cc1cc(CNC(=O)N(Cc2ccc(F)cc2F)C2CC2)no1
cytotoxicity at 70.5 h: 15.5%

Cc1cc(NC(=O)CN2CCC(N(C)Cc3ncc(C)o3)C2)n(C)n1 (configuration not stated)
cytotoxicity at 70.5 h: 16.2%

CCCN(C)CCC(=O)N1CCCC1Cn1cccn1 (configuration not stated)
cytotoxicity at 70.5 h: 15.3%

CC(C(=O)NCCOc1ccccc1)n1cncn1 (configuration not stated)
cytotoxicity at 70.5 h: -12.5%

N#Cc1ccc(OCC(O)CN2CCC(c3ccn[nH]3)CC2)cc1 (configuration not stated)
cytotoxicity at 70.5 h: -14.4%

NC(=O)CN1CCCN(C(=O)CCOc2ccccc2Cl)CC1
cytotoxicity at 70.5 h: -6.92%

c1cncc(-c2noc(CN3CCCC(Cn4cncn4)C3)n2)c1 (configuration not stated)
cytotoxicity at 70.5 h: 9.23%

c1ccc(-c2noc(CN3CCCC(Cn4cncn4)C3)n2)nc1 (configuration not stated)
cytotoxicity at 70.5 h: -11.5%

Cc1ccc(C)c(OCCC(=O)N2CCCN(CC(N)=O)CC2)c1
cytotoxicity at 70.5 h: -7.33%

Cc1ccc(-c2noc(CN3CCCC(Cn4cncn4)C3)n2)cc1 (configuration not stated)
cytotoxicity at 70.5 h: -1.78%

CC(C)(C)C(O)CN1CCN(C(=O)c2ccc3c(c2)COC3)CC1 (configuration not stated)
cytotoxicity at 70.5 h: 10.4%

Cc1cnn(CCNCC(O)COc2ccc(Cl)cc2Cl)c1 (configuration not stated)
cytotoxicity at 70.5 h: -2.81%

Cc1cnn(CCNCC(O)COc2cc(Cl)ccc2Cl)c1 (configuration not stated)
cytotoxicity at 70.5 h: -14.6%

Cc1cnn(CCNCC(O)COc2ccc3ccccc3c2)c1 (configuration not stated)
cytotoxicity at 70.5 h: -0.298%

CCc1noc(C)c1C(=O)N1CCCC1c1c(C)nn(C)c1C (configuration not stated)
cytotoxicity at 70.5 h: -1.9%

CC(C(=O)NCC(F)(F)F)N1CCC(N2CCN(C)C2=O)CC1 (configuration not stated)
cytotoxicity at 70.5 h: -8.46%

CCCc1noc(CCC(=O)N2CCCC2c2cccs2)n1 (configuration not stated)
cytotoxicity at 70.5 h: -2.53%

CCn1ncc2c1CCCC2NCc1cc(C)ccc1OC (configuration not stated)
cytotoxicity at 70.5 h: -12.5%

CN(CC(=O)N1CCCCC1Cn1cccn1)Cc1ccccc1 (configuration not stated)
cytotoxicity at 70.5 h: 13%

COc1c(C2CCCN2C(=O)c2c(C)noc2C)c(C)nn1C (configuration not stated)
cytotoxicity at 70.5 h: -8.08%

CN(CC(=O)N1CCCC1Cn1cccn1)Cc1ccccc1 (configuration not stated)
cytotoxicity at 70.5 h: -17.4%

CCCc1noc(CCC(=O)N2CCCC2c2ccncc2)n1 (configuration not stated)
cytotoxicity at 70.5 h: -5.95%

COc1ccccc1COCC(O)CN1CCC(c2ccn[nH]2)CC1 (configuration not stated)
cytotoxicity at 70.5 h: -8.12%

c1coc(-c2noc(CN3CCCC3Cn3cncn3)n2)c1 (configuration not stated)
cytotoxicity at 70.5 h: -8.45%

CCn1ncc2c1CCCC2NCc1ccc(OC)cc1OC (configuration not stated)
cytotoxicity at 70.5 h: -4.5%

Cc1cnc(CN(C)C2CCN(CC(=O)Nc3nccs3)C2)o1 (configuration not stated)
cytotoxicity at 70.5 h: -5.94%

CCn1cc(CN2CCCN(C(=O)c3sccc3OC)CC2)cn1
cytotoxicity at 70.5 h: 3.74%

O=C(CN1CCCC(Cn2cncn2)C1)NCCC1=CCCCC1 (configuration not stated)
cytotoxicity at 70.5 h: 7.12%

CCn1cc(CN2CCCN(C(=O)c3cccc(C#N)c3)CC2)cn1
cytotoxicity at 70.5 h: -3.9%

COc1cccc(C2CCCN2CCCNS(C)(=O)=O)c1 (configuration not stated)
cytotoxicity at 70.5 h: -12.4%

COc1ccc(C2CCCCCN2CCCNS(C)(=O)=O)cc1 (configuration not stated)
cytotoxicity at 70.5 h: -6.03%

CCCc1nc(CN2CCCC2c2cnn(C)c2)cs1 (configuration not stated)
cytotoxicity at 70.5 h: 13%

Cc1cnn(CCC(=O)N2CCCN(c3nc(C)cs3)CC2)c1
cytotoxicity at 70.5 h: -3.54%

Cn1cc(CN2CCCN(C(=O)c3sccc3C#N)CC2)cn1
cytotoxicity at 70.5 h: -2.13%

O=C(CS(=O)(=O)Cc1cc(Cl)c2c(c1)OCCCO2)NCC1CC1
cytotoxicity at 70.5 h: -3.53%

CN(C)c1ncccc1CNS(=O)(=O)c1ccc(C(N)=O)cc1
cytotoxicity at 70.5 h: -7.08%

CNC(=O)CCS(=O)(=O)Cc1cc(Cl)c2c(c1)OCCCO2
cytotoxicity at 70.5 h: -3.42%

CN(C)c1ncccc1CNS(=O)(=O)c1ccc(F)c(F)c1
cytotoxicity at 70.5 h: 1.87%

CN(Cc1ccsc1)C(=O)Nc1ccc(S(C)(=O)=O)cc1
cytotoxicity at 70.5 h: -1.57%

CC(C)C(C)(C#N)NC(=O)CN1CCC(c2ccnn2CCO)CC1 (configuration not stated)
cytotoxicity at 70.5 h: -3.64%

Cn1nccc1C1CCN(CC(=O)NCC2CC2)CC1
cytotoxicity at 70.5 h: -8.55%

CCOc1ccnc(N2CCN(C(=O)c3cnc[nH]3)CC2)n1
cytotoxicity at 70.5 h: -0.507%

CCOc1ccnc(N2CCN(C(=O)c3cc[nH]n3)CC2)n1
cytotoxicity at 70.5 h: -4.46%

Cn1cc(C2CCCN2Cc2csc(-c3ccccc3)n2)cn1 (configuration not stated)
cytotoxicity at 70.5 h: -7.14%

c1cnn(-c2ccc(CN3CCCC(Cn4cncn4)C3)cc2)c1 (configuration not stated)
cytotoxicity at 70.5 h: -1.71%

COc1ccc2cc(C(=O)N3CCCC(n4ccnc4C)C3)[nH]c2c1 (configuration not stated)
cytotoxicity at 70.5 h: 0.0549%

Cc1nccn1C1CCCN(C(=O)c2cc3c(F)cccc3[nH]2)C1 (configuration not stated)
cytotoxicity at 70.5 h: -1.56%

CN(Cc1ccccc1)C(=O)CN1CCOC(Cn2cncn2)C1 (configuration not stated)
cytotoxicity at 70.5 h: -6.53%

CCCNC(=O)C1CCCN(Cc2csc(C(C)(C)C)n2)C1 (configuration not stated)
cytotoxicity at 70.5 h: 17.8%

COCCCN1CCCC1c1noc(C2CC2)n1 (configuration not stated)
cytotoxicity at 70.5 h: 23.8%

c1ccc(Cc2nnc(CN3CCOC(Cn4cccn4)C3)o2)cc1 (configuration not stated)
cytotoxicity at 70.5 h: 0.701%

CCn1cc(NC(=O)NCC(C)N(C)C2CC2)cn1 (configuration not stated)
cytotoxicity at 70.5 h: -4.71%

CCc1n[nH]c(C2CN(Cc3nnc(C4CCC4)o3)CCO2)n1 (configuration not stated)
cytotoxicity at 70.5 h: -7.61%

CCN1CCN(C2CCN(Cc3nc(C)c(C)o3)CC2)C1=O
cytotoxicity at 70.5 h: -3.68%

COc1cccc(CN2CCN(C(=O)CN3CCOCC3)CC2)n1
cytotoxicity at 70.5 h: 0.577%

CCN1CCOC(CNCc2ccccc2OCc2ccccn2)C1 (configuration not stated)
cytotoxicity at 70.5 h: 1.15%

CCc1cnc(CN(C(C)=O)C2CCN(CCc3cnn(C)c3)C2)o1 (configuration not stated)
cytotoxicity at 70.5 h: 2.5%

CCc1cnc(CN(C)C2CCN(CCc3cccs3)C2)o1 (configuration not stated)
cytotoxicity at 70.5 h: -4.48%

CN(C)C(=O)CS(=O)(=O)Cc1cc(Cl)c2c(c1)OCCCO2
cytotoxicity at 70.5 h: 6.99%

CC(C(N)=O)S(=O)(=O)Cc1cc(Cl)c2c(c1)OCO2 (configuration not stated)
cytotoxicity at 70.5 h: -12.5%

CC(C)(C)c1nc(CN(Cc2cccs2)C2CCS(=O)(=O)C2)no1 (configuration not stated)
cytotoxicity at 70.5 h: -4.17%

Cn1ncc2c(=O)[nH]c(CN3CCCC3CC3CCCCC3)nc21 (configuration not stated)
cytotoxicity at 70.5 h: -9.61%

CC(C)OCc1ccc(CNC(=O)CC(F)(F)F)cc1
cytotoxicity at 70.5 h: -7.73%

CCCNC(=O)CN1CCC(C(=O)Nc2cnn(CC)c2)CC1
cytotoxicity at 70.5 h: -10.8%

O=C(O)C1CCCCN1C(=O)c1cccc(C(F)(F)F)c1 (configuration not stated)
cytotoxicity at 70.5 h: -9.81%

COc1ccc(C2=CCN(C(=O)C3CCN(C)C(=O)C3)CC2)cc1 (configuration not stated)
cytotoxicity at 70.5 h: -8.88%

Cc1nc(CN(Cc2ccccc2)C2CCS(=O)(=O)C2)oc1C (configuration not stated)
cytotoxicity at 70.5 h: -0.994%

COc1cc(C(C)=O)ccc1OCC(=O)N(C)Cc1cnn(C)c1
cytotoxicity at 70.5 h: -7.56%

CC(C)c1nn(C)c(N(C)C)c1CNCCC(=O)NC1CCCC1
cytotoxicity at 70.5 h: 26.8%

CCn1cc(NC(=O)C2CCN(CC(=O)N3CCOCC3)CC2)cn1
cytotoxicity at 70.5 h: -19%

CCc1nnc2n1CCN(C(=O)C(C)COCc1ccccc1)C2 (configuration not stated)
cytotoxicity at 70.5 h: -9.75%

NC(=O)NCC1CCCCN1C(=O)c1cccc(C(F)(F)F)c1 (configuration not stated)
cytotoxicity at 70.5 h: -3.78%

O=C(CN1CCCC1Cn1cncn1)NCCc1c(F)cccc1F (configuration not stated)
cytotoxicity at 70.5 h: 27.9%

COc1cccc(C(=O)N2CCCCC2CNC(N)=O)c1 (configuration not stated)
cytotoxicity at 70.5 h: 9%

CC(C)Oc1ccc(CNC(=O)CC(F)(F)F)cc1F
cytotoxicity at 70.5 h: -18%

CCNc1cc2c(nn1)CCN(C(=O)Cc1c(C)noc1C)C2
cytotoxicity at 70.5 h: 4.3%

CCc1nnc2n1CCN(C(=O)COCCc1ccccc1)C2
cytotoxicity at 70.5 h: -14.7%

Cc1nc(C)n(CC2CN(c3ccc(C#N)cn3)CCO2)n1 (configuration not stated)
cytotoxicity at 70.5 h: -4.17%

CCOc1cc(C(=O)N2CCCC(c3cc(C(N)=O)[nH]n3)C2)ccn1 (configuration not stated)
cytotoxicity at 70.5 h: -7.42%

COCCN1CCC(CNC(=O)C2(c3cc(C)cc(C)c3)CCC2)C1 (configuration not stated)
cytotoxicity at 70.5 h: -5.65%

CN(C)S(=O)(=O)c1ccc(CN2CCCC2CO)o1 (configuration not stated)
cytotoxicity at 70.5 h: -17%

COCc1nc(C(=O)N2CCCCC2Cn2cccn2)cs1 (configuration not stated)
cytotoxicity at 70.5 h: -7.2%

CCc1nc2n(n1)CC(NCc1ncc(-c3ccccc3)o1)CC2 (configuration not stated)
cytotoxicity at 70.5 h: -5.1%

Cc1csc(N2CCN(CC(=O)Nc3c(C)n[nH]c3C)CC2C)n1 (configuration not stated)
cytotoxicity at 70.5 h: 7.7%

Cc1nn(C)c(C)c1C1CCCN1C(=O)c1ccc(CN(C)C)cc1 (configuration not stated)
cytotoxicity at 70.5 h: 15.1%

CN(Cc1ccc2c(c1)OCCO2)C(=O)NCCc1cnn(C)c1
cytotoxicity at 70.5 h: 6.83%

COCCCNC(=O)CN(C)C(=O)c1cc(C)ccc1O
cytotoxicity at 70.5 h: -9.64%

CN(CC(=O)N1CCC(C(O)c2ccccc2)CC1)c1cnccn1 (configuration not stated)
cytotoxicity at 70.5 h: -20.6%

Cc1ccc(C)c(OCCN2CCC(N3CCNC3=O)CC2)c1
cytotoxicity at 70.5 h: -3.76%

COCCNC(=O)CN1CCN(c2nc(C)cs2)C(C)C1 (configuration not stated)
cytotoxicity at 70.5 h: -1.03%

Cc1nn(C)c(C)c1C1CCCN1C(=O)c1cnc2n[nH]c(C)c2c1 (configuration not stated)
cytotoxicity at 70.5 h: -7.81%

Cc1cc(CN(C)C(=O)c2cc3c([nH]c2=O)CCCC3=O)no1
cytotoxicity at 70.5 h: -14.6%

COCCCNC(=O)CN(C)C(=O)c1cc(C)ccc1N(C)C(C)C
cytotoxicity at 70.5 h: -3.7%

O=S(=O)(N(Cc1ccccn1)C1CC1)N1CCCC1c1ccco1 (configuration not stated)
cytotoxicity at 70.5 h: -8.96%

CC(NC(=O)NCCCn1ccnc1)c1ccc2c(c1)OCCCO2 (configuration not stated)
cytotoxicity at 70.5 h: -10.6%

Clc1ccc2cccnc2c1CN1CCCC1Cn1cncn1 (configuration not stated)
cytotoxicity at 70.5 h: -17.7%

O=C(c1ccc(Br)o1)N1CCCCC1Cn1cccn1 (configuration not stated)
cytotoxicity at 70.5 h: -10.3%

CCc1nc(CN2CCN(C(=O)c3cnccn3)CC2)cs1
cytotoxicity at 70.5 h: -5.66%

Cc1ncsc1C(=O)NCCSCc1cccs1
cytotoxicity at 70.5 h: -1.32%

COc1c(CNCCNC(=O)Cc2ccc(F)cc2)c(C)nn1C
cytotoxicity at 70.5 h: 34.8%

COc1ccccc1CC(=O)N1CCC(NCc2cc[nH]c2)CC1
cytotoxicity at 70.5 h: 4.03%

CCC(C)(C)NC(=O)C1CC(=O)N(CC2CC2)C1 (configuration not stated)
cytotoxicity at 70.5 h: 27.7%

COc1ccccc1CC(=O)N1CCC(NCc2c[nH]nc2C)CC1
cytotoxicity at 70.5 h: 2.03%

c1ccc(Cc2noc(CNC3CCc4ncnn4C3)n2)cc1 (configuration not stated)
cytotoxicity at 70.5 h: -5.32%

COc1c(CNC2CCOc3ccccc32)c(C(C)C)nn1C (configuration not stated)
cytotoxicity at 70.5 h: -7.12%

CC(=O)NCC1CCN(C(=O)c2csc(-c3ccc(C)cc3C)n2)CC1
cytotoxicity at 70.5 h: -10.6%

CCc1nnsc1C(=O)NCCn1nc2ccccn2c1=O
cytotoxicity at 70.5 h: 31.6%

Cc1noc(C)c1C(=O)NCC(c1ccc(F)cc1)N(C)C (configuration not stated)
cytotoxicity at 70.5 h: -2.05%

NC(=O)C1CCN(CCc2ccc(NC(=O)C3CCC3)cc2)CC1
cytotoxicity at 70.5 h: -1.87%

COc1c(CNCCNC(=O)c2ccc(C)cc2)c(C)nn1C
cytotoxicity at 70.5 h: 8.52%

O=C(NCCNc1ncccn1)Nc1cc(C(F)(F)F)c[nH]c1=O
cytotoxicity at 70.5 h: -3.37%

O=c1[nH]c(CCN2CCCC(Cn3cncn3)C2)nc2ccccc12 (configuration not stated)
cytotoxicity at 70.5 h: -0.545%

CCOc1cc(C)nc(N2CCN(C(=O)CC)CC2)n1
cytotoxicity at 70.5 h: -8.45%

Source: ChEMBL document CHEMBL3507680, “University of Dundee, Gates Library screen for HepG2 cell viability”
